This note sets out measurements from paper PMC10388362, “Fluorescent Ligands Enable Target Engagement Studies for the Intracellular Allosteric Binding Site of the Chemokine Receptor CXCR2” (Journal of Medicinal Chemistry, 2023).

Test [1] has as its target T1, CXCR1 (Homo sapiens, UniProt P25024).
T1 construct: host or cells: HEK293T, transient; membrane preparation
T1 sequence (P25024 1-350): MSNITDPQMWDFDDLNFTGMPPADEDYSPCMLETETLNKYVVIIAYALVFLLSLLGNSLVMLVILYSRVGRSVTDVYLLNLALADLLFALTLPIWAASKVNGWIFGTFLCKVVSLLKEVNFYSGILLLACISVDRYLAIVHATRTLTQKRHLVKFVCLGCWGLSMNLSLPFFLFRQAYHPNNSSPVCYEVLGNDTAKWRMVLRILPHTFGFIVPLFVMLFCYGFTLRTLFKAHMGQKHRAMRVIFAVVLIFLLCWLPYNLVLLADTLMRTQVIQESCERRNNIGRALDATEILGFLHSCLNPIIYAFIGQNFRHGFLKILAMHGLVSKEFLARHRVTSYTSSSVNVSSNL
Briefly: Membrane-based NanoBRET saturation assay, selectivity (CXCR1_Nluc membranes). Type of test: binding. As to conditions: cell-free. On the procedure: (§1) For the establishment of our NanoBRET binding assay, we referred to a recently published protocol.[45] The fluorescent ligands (9a–c) were dissolved in DMSO (1 mM) and further diluted to varying concentrations in an assay buffer (50 mM Na2HPO4, 50 mM KH2PO4, pH 7.4, 1 mg/mL saponin, 5% FBS) and 5 μL of these dilutions were pipetted to a 384-well plate. To determine the total binding, 5 μL of the assay buffer was added to the corresponding wells, while 5 μL of a solution of 3 in the assay buffer (final assay concentration: 1 μM) was used to determine nonspecific binding. Then, 20 μL of the membrane preparations diluted in the assay buffer (2 μg total protein/well) were added and the plates were incubated for 90 min at 37 °C. Subsequently, 5 μL of a furimazine solution (Promega, Mannheim, Germany, final assay dilution: 1:5000) was added to each well (final assay volume: 35 μL) before measuring luminescence with a CLARIOstar microplate reader using 620/10 and 475/30 nm emission filters after 5 min of incubation in the dark. Bioluminescence resonance energy transfer (BRET) was determined as the ratio of acceptor fluorescence and donor luminescence. The algorithms for one-site saturation binding from PRISM9.5 (GraphPad) were utilized to analyze total, nonspecific, and specific binding. Specific binding signals were calculated as a difference of total and nonspecific binding. If required, netBRET values were calculated as the difference between total BRET values and the values obtained in the absence of a fluorescent ligand. For selectivity studies with CCR2, CCR7, CCR9, and CXCR1, we modified the procedure described above.
Background: Bioluminescence resonance energy transfer reports proximity on the nanometre scale.

Test [2] addresses T2, CCR7 (Homo sapiens, UniProt P32248).
T2 construct: host or cells: HEK293T; membrane preparation
T2 sequence (P32248 25-378): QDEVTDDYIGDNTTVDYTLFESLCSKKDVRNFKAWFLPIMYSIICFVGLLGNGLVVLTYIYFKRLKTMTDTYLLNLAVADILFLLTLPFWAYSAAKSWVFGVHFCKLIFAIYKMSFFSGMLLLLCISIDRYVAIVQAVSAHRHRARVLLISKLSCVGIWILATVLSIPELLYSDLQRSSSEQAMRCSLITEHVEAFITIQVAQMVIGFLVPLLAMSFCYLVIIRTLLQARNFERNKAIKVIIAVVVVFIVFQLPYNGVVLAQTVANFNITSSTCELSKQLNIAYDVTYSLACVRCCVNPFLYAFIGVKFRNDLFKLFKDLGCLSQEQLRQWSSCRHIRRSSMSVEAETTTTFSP
The test can be described thus: Membrane-based NanoBRET saturation assay, selectivity (CCR7_GSSG_Nluc membranes). On the procedure: as §1, with “The algorithms for one-site saturation binding from PRISM9.5 (GraphPad) were utilized to analyze total, nonspecific, and specific binding.” left out, “For selectivity studies with CCR2, CCR7, CCR9, and CXCR1, we modified the procedure described above.” left out

Test [3] has as its target T3, CCR9 (Homo sapiens, UniProt P51686).
T3 construct: host or cells: HEK293T; membrane preparation
T3 sequence (P51686 1-369): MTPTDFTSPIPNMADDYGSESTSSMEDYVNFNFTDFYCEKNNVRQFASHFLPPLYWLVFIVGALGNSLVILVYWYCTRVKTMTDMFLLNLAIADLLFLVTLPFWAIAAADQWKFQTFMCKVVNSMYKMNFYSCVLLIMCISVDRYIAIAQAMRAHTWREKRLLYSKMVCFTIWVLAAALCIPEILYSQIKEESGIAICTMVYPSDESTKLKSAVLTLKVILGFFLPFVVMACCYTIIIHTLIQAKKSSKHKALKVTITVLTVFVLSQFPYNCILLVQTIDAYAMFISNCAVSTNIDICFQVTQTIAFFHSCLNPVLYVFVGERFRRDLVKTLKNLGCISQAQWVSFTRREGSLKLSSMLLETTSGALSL
Briefly: Membrane-based NanoBRET saturation assay, selectivity (CCR9_Nluc membranes). How it is done: as §1, with “The algorithms for one-site saturation binding from PRISM9.5 (GraphPad) were utilized to analyze total, nonspecific, and specific binding.” left out, “For selectivity studies with CCR2, CCR7, CCR9, and CXCR1, we modified the procedure described above.” left out

Structures are written as SMILES.

Turning to `Cc1ccc([C@H](Nc2c(Nc3cccc(C(=O)NCc4cn(CCOCCOCCOCCNC(=O)c5ccc(C(=O)[O-])c(-c6c7ccc(=[N+](C)C)cc-7oc7cc(N(C)C)ccc67)c5)nn4)c3O)c(=O)c2=O)C(C)(C)C)o1` [9a, (R)-4-((2-(2-(2-(2-(4-((3-((2-((2,2-Dimethyl-1-(5-methylfuran-2-yl)propyl)amino)-3,4-dioxocyclobut-1-en-1-yl)amino)-2-hydroxybenzamido)methyl)-1H-1,2,3-triazol-1-yl)ethoxy)ethoxy)ethoxy)ethyl)carbamoyl)-2-(6-(dimethylamino)-3-(dimethyliminio)-3H-xanthen-9-yl)benzoate], in test [1] (CXCR1_Nluc membranes), the Kd (as a rule, the equilibrium constant for the complex coming apart) came to 198 ± 29 nM. Also, in test [1] (from Kd values), the “selectivity for CXCR2 compared to CXCR1” value is around 50 fold. Moreover, in test [2], the “binding to CCR7” value is given as “no significant binding”. The “binding to CCR9” value in test [3] was “no significant binding”.
